The test addresses human DHODH (Homo sapiens, UniProt Q02127). Kind of test: Inhibition assay of DHODH activity. The format is biochemical. Conditions: recombinant human DHODH; 50 μM decyclo ubichinone, 100 μM dihydroorotate, 60 μM 2,6-dichloroindophenol; pH 8.0, 30° C.

pIC50: −log10 of the molar value. Some results are limits rather than exact numbers.

For 2 compounds, IC50 results are on record in patent US7071355B2, “Compounds as anti-inflammatory, immunomodulatory and anti-proliferatory agents” (4 SC AG, priority 2002, dated 2006).

As a reminder, the pIC50 is −log10 of the IC50, conventionally taken in molar units.

human DHODH, sequence (Q02127 whole entry): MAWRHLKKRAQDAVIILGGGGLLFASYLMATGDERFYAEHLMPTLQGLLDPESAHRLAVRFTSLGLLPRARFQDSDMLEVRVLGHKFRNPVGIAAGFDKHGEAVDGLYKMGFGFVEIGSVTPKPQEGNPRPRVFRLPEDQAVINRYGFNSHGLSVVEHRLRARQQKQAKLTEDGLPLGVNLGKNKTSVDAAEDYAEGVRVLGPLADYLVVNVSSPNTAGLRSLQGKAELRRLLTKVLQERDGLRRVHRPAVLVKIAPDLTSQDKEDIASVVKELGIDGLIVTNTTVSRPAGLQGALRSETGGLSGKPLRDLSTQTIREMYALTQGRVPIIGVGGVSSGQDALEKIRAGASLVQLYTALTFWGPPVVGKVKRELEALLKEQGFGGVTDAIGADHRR

In the case of `O=C(O)C1=C(C(=O)Nc2c(F)cc(-c3ccccc3F)cc2F)CCC1O` (centres unmarked) [Example 12, 5-Hydroxy-2-(3,5,2′-trifluoro-biphenyl-4-ylcarbamoyl)-cyclopent-1-enecarboxylic acid], the pIC50 was more than 6.00.

For the compound `COc1cccc(-c2ccc(NC(=O)C3=C(C(=O)O)C(O)CC3)c(F)c2)c1` (centres unmarked) [Example 18, 2-(3-Fluoro-3′-methoxy-biphenyl-4-ylcarbamoyl)-5-hydroxy-cyclopent-1-enecarboxylic acid], the pIC50 was more than 6.00.
